Tested on: hPSC-OPCs cocultured with rat dorsal root ganglion neurons
Test: Myelination in hPSC-OPC / rat DRG neuron cocultures (MBP/NF overlap)
Type: cell-based, human
Details: compound for first 48 hr, 28 days coculture
Experimental: Human pluripotent stem cell-derived OPC (hSC-OPC)/[…] dorsal root ganglion (rDRG) cocultures were carried out as follows: 5,000 hES-OPCs were seeded on top of 14-day-old DRG neuron axons in each well of 96-well black μClear plates (Greiner). The cells were seeded in 100 μl of myelination media (MYL) for each well. Twenty-four hours after seeding, media were gently removed, and a fresh MYL medium that contained the compound of interest at a specific dilution (in 0.1% DMSO) was supplemented to the media (first feeding), and the total volume for each well was 200 μl. For each tested compound dose, four replicates were used. After 48 hr, the media were replenished by removing 100 μl of media, and fresh MYL medium (that contains 0.1% DMSO) was added to the wells. […]
The ArrayScan VTI HCS reader system (Cellomis, Thermo-scientific) was used for scanning 49 fields for each tested well under 10× objective. […] The four-parameter Hill-Slope curve fittings were generated by GraphPad Prism software using least squares fitting method, and EC50 values were calculated for the three major parameters of oligodendrocyte myelination: number of differentiated oligodendrocytes, areas of myelinated axons in pixels (MBP and NF overlap area), and number of myelinated regions (MBP and NF overlap count). […]

**Q.** How did the “Number and length of MBP-positive oligodendrocyte processes colocalized with NF-positive axons” value turn out when `C[C@@H](N)[C@H]1CC[C@H](C(=O)Nc2ccncc2)CC1.Cl.Cl` [Y0503, trans-4-[(1 R)-1-aminoethyl]-N-4-pyridinylcyclohexanecarboxamide dihydrochloride] was run?
**A.** The value was “dose-response effect”.

Source: paper PMC4189421, “Induction of Oligodendrocyte Differentiation and In Vitro Myelination by Inhibition of Rho-Associated Kinase” (ASN NEURO, 2014)
